From patent publication US11712429B2, “Low eructation composition and methods for treating and/or preventing cardiovascular disease in a subject with fish allergy/hypersensitivity” (Amarin Pharmaceuticals Ireland Limited, priority 2010, dated 2023)

Experiments:
Assay type in all cases: in vivo, human
[1] = Essential fatty acid (EFA) measurements in plasma and RBC, AAMI study
Description: (3) assess the potential dose-effect relationship of E-EPA on the cognitive endpoints by measurement of essential fatty acids in plasma and red blood cell membranes. 94 subjects were randomized. Blood samples (10 mL) were collected at Visit 1 (screening) and at Visits 4, 5 and 6. Analysis was performed by MSR Lipid Analysis, Scottish Crop Research Institute, Dundee, UK. The screening sample acted as baseline for the EFA measurements. Lipid was extracted from plasma, serum and RBC suspensions and converted into fatty acid methyl esters which were analyzed by gas chromatography to give fatty acid profiles as micrograms fatty acid per gram of sample (μgFA/g) and normalized area percent. The CDR computerized system has been used to measure the effects of pharmaceuticals on cognitive function in a variety of clinical trials. Efficacy was assessed by a battery of cognition tests designed by CDR. Safety data were analyzed by Quanticate. RBC and plasma EFA data were collected at baseline, Day 14, 28 and 42 and summarized by visit for each treatment group. Change from baseline and percent change from baseline were also summarized. ANCOVA comparison of ethyl-EPA dose groups and ethyl-EPA versus placebo was performed.

[2] = test system: individuals with Huntington disease; assay: Huntington disease trial (TREND-HD): non-fasting triacylglycerols and total cholesterol
Text: Eligible study participants provided written consent. […] The outcome measure of this study was the change in non-fasting triacylglycerol (TG) levels in those on AMR101 compared to those on placebo. Changes in lipid levels were compared using an analysis of covariance (ANCOVA) with treatment group as the factor of interest, site as a stratification factor, and baseline value as a covariate. All individuals who received study medication were included in the safety analysis. For each type of adverse event, the treatment groups were compared regarding the occurrence of at least one event using Fisher's exact test.

[3] = test system: individuals with Huntington disease; assay: Huntington disease trial (TREND-HD): total motor score 4 of the Unified Huntington's Disease Rating Scale
Text: Eligible study participants provided written consent.

[4] = test system: patients with fasting triglyceride levels ≥500 mg/dL; assay: Phase 3 12-week double-blind study: treatment-emergent adverse events; conditions: 12 weeks
Description: A multi-center, placebo-controlled randomized, double-blind, 12-week study with an open-label extension was performed to evaluate the efficacy and safety of AMR101 in patients with fasting triglyceride levels ≥500 mg/dL. The primary objective of the study was to determine the efficacy of AMR101 2 g daily and 4 g daily, compared to placebo, in lowering fasting TG levels in patients with fasting TG levels ≥500 mg/dL and ≤1500 mg/dL (≥5.65 mmol/L and ≤16.94 mmol/L). Approximately 240 patients were randomized at approximately 50 centers in North America, South America, Central America, Europe, India, and South Africa. The Phase 3, multi-center study consisted of 3 study periods: (1) A 6- to 8-week screening period that includes a diet and lifestyle stabilization and washout period and a TG qualifying period; (2) A 12-week, double-blind, randomized, placebo-controlled treatment period; and (3) A 40-week, open-label, extension period. After confirmation of qualifying fasting TG values, eligible patients entered a 12-week, randomized, double-blind treatment period. At Visit 4 (Week 0), patients were randomly assigned to 1 of the following treatment groups: • AMR101 2 g daily, • AMR101 4 g daily, or • Placebo. Eligible patients were randomly assigned at Visit 4 (Week 0) to receive orally AMR101 2 g daily, AMR101 4 g daily, or placebo for the 12-week double-blind treatment period. AMR101 was provided in 1 g liquid-filled, oblong, gelatin capsules. The matching placebo capsule was filled with light liquid paraffin and contained 0 g of AMR101. During the double-blind treatment period, patients took 2 capsules (AMR101 or matching placebo) in the morning and 2 in the evening for a total of 4 capsules per day. Patients in the AMR101 2 g/day treatment group received 1 AMR101 1 g capsule and 1 matching placebo capsule in the morning and in the evening. Patients in the AMR101 4 g/day treatment group received 2 AMR101 1 g capsules in the morning and evening. The efficacy variable for the open-label extension period was percent change in fasting TG from extension baseline to end of treatment. Safety assessments included adverse events, clinical laboratory measurements (chemistry, hematology, and urinalysis), 12-lead electrocardiograms (ECGs), vital signs, and physical examinations Top line results of the study are shown in FIGS. 3 and 4. Adverse events are shown in Table 9 by comparison with placebo and those experienced by subjects taking commercially available mixture of E-EPA and E-DHA (Lovaza).

CC/C=C\C/C=C\C/C=C\C/C=C\C/C=C\CCCC(=O)OCC [AMR101, all-cis eicosa-5,8,11,14,17-pentaenoic acid ethyl ester]
Percent Fatty Acid Change from Baseline: AA ([1]; 4 g dose, plasma, 6 weeks): −21.9%
Percent Fatty Acid Change from Baseline: DGLA ([1]; 4 g dose, plasma, 6 weeks): −39.4%
Percent Fatty Acid Change from Baseline: DHA ([1]; 4 g dose, plasma, 6 weeks): −17.5%
Percent Fatty Acid Change from Baseline: DPA ([1]; 4 g dose, plasma, 6 weeks): +147%
EPA, DPAn-3 and EPA/AA ratio plasma and RBC values ([1]; baseline to Day 42, 1, 2, and 4 g treatment groups): increased substantially
AA, DHA and DGLA values ([1]; change from baseline, data not shown): decreased substantially
Total cholesterol reduction ([2]; 1 gram twice/day, after 6 months, baseline 204 mg/dL, p=0.009 vs placebo): 9.5 mg/dL
decrease in TGs ([2]; 1 gram twice/day, after 6 months, non-fasting, baseline 171, p=0.007 vs placebo): 26 mg/dL
Change in triglycerides after 6 months (mean mg/dL ± SD) ([2]; 1 gram twice/day, baseline 171 ± 108, p .007): -25.8 ± 89.1 mg/dL
Change in total cholesterol after 6 months (mean mg/dL ± SD) ([2]; 1 gram twice/day, baseline 204 ± 41.4, p .009): -9.5 ± 28.6 mg/dL
Change in triglycerides after 12 months (mean mg/dL ± SD) ([2]; second 6 months open-label, p 0.66): -17.7 ± 86.7 mg/dL
Change in total cholesterol after 12 months (mean mg/dL ± SD) ([2]; second 6 months open-label, p 0.95): -5.6 ± 25.5 mg/dL
Change in total motor score 4 at 12 months (mean) ([3]; All Study Participants n = 316, baseline 25.2, p 0.02): 0.0
Change in total motor score 4 at 6 months (mean) ([3]; All Study Participants n = 316, baseline 25.2, p 0.20): 0.2
Change in total motor score 4 at 12 months (mean) ([3]; Study Participants with CAG < 45, n = 221, baseline 24.9, p 0.004): −1.2
Change in total motor score 4 at 6 months (mean) ([3]; Study Participants with CAG < 45, n = 221, baseline 24.9, p 0.70): 0.0
Diarrhea ([4]; 2 g/day, N = 76): 4 (5.3) n (%)
Dyspepsia ([4]; 2 g/day, N = 76): 1 (1.3) n (%)
Eructation ([4]; 2 g/day, N = 76): 1 (1.3) n (%)
Hypertension ([4]; 2 g/day, N = 76): 4 (5.3) n (%)
Infection ([4]; 2 g/day, N = 76): 2 (2.6) n (%)
Nausea ([4]; 2 g/day, N = 76): 5 (6.6) n (%)
Skin rash ([4]; 2 g/day, N = 76): 1 (1.3) n (%)
Subjects with any TEAE ([4]; 2 g/day, N = 76): 27 (35.5) n (%)
Diarrhea ([4]; 4 g/day, N = 77): 1 (1.3) n (%)
Dyspepsia ([4]; 4 g/day, N = 77): 1 (1.3) n (%)
Eructation ([4]; 4 g/day, N = 77): 0 (0.0) n (%)
Hypertension ([4]; 4 g/day, N = 77): 1 (1.3) n (%)
Infection ([4]; 4 g/day, N = 77): 4 (5.2) n (%)
Nausea ([4]; 4 g/day, N = 77): 1 (1.3) n (%)
Skin rash ([4]; 4 g/day, N = 77): 0 (0.0) n (%)
Subjects with any TEAE ([4]; 4 g/day, N = 77): 28 (36.4) n (%)
